Experimental data as given in paper PMC12304311, “Sequence-based virtual screening using transformers” (Nature Communications, 2025).

What was measured:
[1] = target: T1, EGFR L858R/T790M/C797S kinase (EGFR^LTC) (Homo sapiens, UniProt P00533, C797S/L858R/T790M); assay: biochemical; parameters: HTRF KINASE-TK inhibition assay, EGFR L858R/T790M/C797S, ATP about Km, dose response
Experimental: A total of 25 nL of each compound was transferred to a 384-well reaction plate (Greiner, Cat#784075) using an Echo655 acoustic dispenser. […] The kinase solution was prepared in 1× kinase reaction buffer (comprising 5 mM MgCl₂, 1 mM DTT, and 1 mM MnCl₂), and 2.5 μL of this solution was added to each well. The plate was centrifuged at 140 g for 1 min and incubated at 25 °C for 10 min. […] This ATP level was selected in accordance with the Cheng-Prusoff equation (where ATP = Km, IC50 = 2Ki) to accurately reflect the inhibitory potency of test compounds. Then, 2.5 μL of the substrate-ATP mixture was added to each well, followed by centrifugation at 140 g for 1 min. The plate was sealed and incubated at 25 °C for 50 min. Subsequently, a 2× detection reagent mixture containing XL665 and anti-phospho-tyrosine antibody in detection buffer was prepared, and 5 μL of this solution was added to each well. The plate was centrifuged again (140 g, 1 min) and incubated at 25 °C for 60 min. Fluorescence emissions at 620 nm (Cryptate) and 665 nm (XL665) were measured using a microplate reader. Each assay condition was tested in duplicate. […] This was achieved by fitting the calculated percentage inhibition and the logarithm of the compound concentrations to a variable slope (four-parameter) nonlinear regression model. The model is expressed by the equation:3 Y=Bottom+Top−Bottom/1+10^LogIC50−X×Hill slope where X denotes the log of the inhibitor concentration and Y represents the percentage inhibition. Furthermore, the percentage of enzymatic activity in the presence of inhibitors, expressed as % Control, is derived by subtracting the % Inhibition from 100%.

[2] = target: T1, EGFR L858R/T790M/C797S kinase (EGFR^LTC); assay: HTRF KINASE-TK in vitro kinase inhibition assay, dose response; type: biochemical

T1 sequence (P00533 669-1210 T790M/C797S/L858R limits assumed): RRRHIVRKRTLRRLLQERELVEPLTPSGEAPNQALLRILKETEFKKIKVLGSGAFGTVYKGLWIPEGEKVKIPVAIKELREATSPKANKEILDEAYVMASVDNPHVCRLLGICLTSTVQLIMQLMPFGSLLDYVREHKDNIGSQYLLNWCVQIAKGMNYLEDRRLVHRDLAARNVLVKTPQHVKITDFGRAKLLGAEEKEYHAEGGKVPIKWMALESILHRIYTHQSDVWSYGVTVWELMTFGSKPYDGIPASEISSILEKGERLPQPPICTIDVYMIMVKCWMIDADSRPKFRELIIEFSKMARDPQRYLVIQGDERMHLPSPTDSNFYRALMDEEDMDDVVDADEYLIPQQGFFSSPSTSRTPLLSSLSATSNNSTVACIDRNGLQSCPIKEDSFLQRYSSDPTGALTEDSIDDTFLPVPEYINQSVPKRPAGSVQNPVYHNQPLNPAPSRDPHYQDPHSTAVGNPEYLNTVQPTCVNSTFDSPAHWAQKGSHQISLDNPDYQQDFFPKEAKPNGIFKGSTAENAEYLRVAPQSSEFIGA

SMILES	IC50 [1]	IC50 [2]
N#Cc1ccnc(Nc2cc(C3CCN(C4COC4)CC3)cc(N3CCC(F)(F)C3)n2)c1 [C11]	0.106 µM	< 10000 nM
COc1cc(N2CCC(N(C)C)CC2)ccc1Nc1ncc(Cl)c(Nc2ccccc2P(C)(C)=O)n1 [C10]	–	1.2 nM
CC(=O)c1cnc2ccc(-c3cc(Cl)c(O)c(Cl)c3)nc2c1N[C@H]1CC[C@H](CN(C)C)CC1 [C1]	–	5.5 nM
CC(=O)O[C@]1(C(C)=O)CC[C@H]2[C@@H]3CCC4=CC(=O)CCC4=C3[C@@H](c3ccc(N(C)C)cc3)C[C@@]21C [C9]	> 10 µM	–
CC(C)N(C[C@H]1O[C@@H](n2cnc3c(N)ncnc32)[C@H](O)[C@@H]1O)[C@H]1C[C@@H](CCc2nc3cc(C(C)(C)C)ccc3[nH]2)C1 [C6]	> 10 µM	–
CN(C)CC#Cc1ccc(OCCCc2sc(N3CCc4cccc(C(=O)Nc5nc6ccccc6s5)c4C3)nc2C(=O)O)c(F)c1 [C2]	> 10 µM	–
CC1(C)CCC(CN2CCN(c3ccc(C(=O)NS(=O)(=O)c4ccc(NCC5CCOCC5)c([N+](=O)[O-])c4)c(Oc4cnc5[nH]ccc5c4)c3)CC2)=C(c2ccc(Cl)cc2)C1 [C3]	> 10 µM	–
COc1cc2nccc(Oc3ccc(NC(=O)c4cn(C(C)C)c(=O)n(-c5ccc(F)cc5)c4=O)cc3F)c2cc1OC [C5]	2.74 µM	< 10000 nM
N[C@@H]1c2cccnc2[C@H](OC(=O)N2CCC(n3c(=O)[nH]c4ncccc43)CC2)CC[C@H]1c1cccc(F)c1F [C8]	> 10 µM	–
CCc1cc(Nc2nccc(-c3c(-c4ccc(OC)c(C(=O)Nc5c(F)cccc5F)c4)nc4ccccn34)n2)c(OC)cc1N1CCC(N2CCN(S(C)(=O)=O)CC2)CC1 [C7]	3.58 µM	< 10000 nM
